Where two headings read alike, the source gives them in different places. *1 amine or outer side, *2 acyl side, *3 side chain or, on linkers, in order; H or OH if unused. Where a SMILES comes first, the peptide text is derived from it. Side-chain parts run from the residue outwards. [ ]: non-standard residue; d: D form. The star is where a group is joined. αMePhe(2-F) = C[C@](N)(Cc1ccccc1F)C(=O)O; γGlu = O=C(O)[C@H](CCC(=O)[*:2])N[*:1]; C14 diacid = O=C(O)CCCCCCCCCCCCC(=O)*; αMeY = C[C@](N)(Cc1ccc(O)cc1)C(=O)O; 4Pal = N[C@@H](Cc1ccncc1)C(=O)O; αMeL = CC(C)C[C@](C)(N)C(=O)O; Orn = NCCC[C@H](N)C(=O)O; AEEA = NCCOCCOCC(=O)O; Aib = CC(C)(N)C(=O)O
Experiments:
Format in all cases: cell-based
hGLP-1R = hGLP-1R (Homo sapiens, UniProt P43220); experiment: Functional cAMP formation (HTRF) in HEK-293 clonal cells expressing hGLP-1R, 0.1% bovine casein, without or with 1.0% human serum albumin; parameters: expressed in transfected cells; conditions: for Emax: read-out: hGLP-1R Emax, % ± SEM; for EC50: read-out: hGLP-1R EC50, nM (SEM, n)
How it was run: (§1)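 Cells were stimulated with peptide for 30 min at 37° C, then intracellular cAMP was measured by competitive HTRF (665/620 nm ratio) and converted to nM using a cAMP standard curve. Relative EC50 and Emax came from four-parameter logistic fits of percent maximal response against peptide concentration.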

hGCGR = molecular target: T1, hGCGR (Homo sapiens, UniProt P47871); experiment: Functional cAMP formation (HTRF) in HEK-293 clonal cells expressing hGCGR, 0.1% bovine casein, without or with 1.0% human serum albumin; conditions: read-out: hGCGR EC50, nM (SEM, n)
T1 construct: expressed in transfected cells
How it was run: as §1

hGIPR = molecular target: T2, hGIPR (Homo sapiens, UniProt P48546); experiment: Functional cAMP formation (HTRF) in HEK-293 clonal cells expressing hGIPR, 0.1% bovine casein, without or with 1.0% human serum albumin; conditions: for Emax: read-out: hGIPR Emax, % ± SEM; for EC50: geometric mean, read-out: hGIPR EC50, nM (SEM, n)
T2 construct: expressed in transfected cells
T2 sequence (P48546 22-466): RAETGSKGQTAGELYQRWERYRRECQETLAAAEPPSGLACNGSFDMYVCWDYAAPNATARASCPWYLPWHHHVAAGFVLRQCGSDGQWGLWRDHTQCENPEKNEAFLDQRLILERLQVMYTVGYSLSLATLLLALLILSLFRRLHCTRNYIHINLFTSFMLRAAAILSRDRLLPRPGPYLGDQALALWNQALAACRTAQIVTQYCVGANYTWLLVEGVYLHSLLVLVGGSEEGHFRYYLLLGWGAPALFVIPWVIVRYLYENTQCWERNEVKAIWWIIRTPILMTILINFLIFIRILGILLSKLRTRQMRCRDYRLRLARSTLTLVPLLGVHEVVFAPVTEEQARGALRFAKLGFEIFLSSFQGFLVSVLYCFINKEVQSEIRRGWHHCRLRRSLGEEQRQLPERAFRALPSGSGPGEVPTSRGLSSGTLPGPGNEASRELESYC
How it was run: as §1

[1] = cAMP, 37° C., 0.1% bovine casein (no human serum albumin), geometric mean
[2] = cAMP, 37° C., 0.1% bovine casein and 1.0% human serum albumin, geometric mean (SEM, n)
[3] = 0.1% bovine casein and 1.0% human serum albumin, 37° C., geometric mean
[4] = HEK293, percent of maximal response to GLP-1(7-36)NH2, 37° C., 0.1% bovine casein, arithmetic mean
[5] = cAMP, incubated at 37° C., 0.1% bovine casein (no human serum albumin), geometric mean
[6] = 0.1% bovine casein and 1.0% human serum albumin, 37° C.
[7] = HEK293, 0.1% bovine casein and 1.0% human serum albumin, 37° C., percent of maximal response to GIP(1-42)NH2
[8] = cAMP, incubated at 37° C., 0.1% bovine casein (no human serum albumin)
[9] = HEK293, percent of maximal response to GIP(1-42)NH2, 37° C., 0.1% bovine casein, arithmetic mean

hGLP-1R, sequence (P43220 24-463): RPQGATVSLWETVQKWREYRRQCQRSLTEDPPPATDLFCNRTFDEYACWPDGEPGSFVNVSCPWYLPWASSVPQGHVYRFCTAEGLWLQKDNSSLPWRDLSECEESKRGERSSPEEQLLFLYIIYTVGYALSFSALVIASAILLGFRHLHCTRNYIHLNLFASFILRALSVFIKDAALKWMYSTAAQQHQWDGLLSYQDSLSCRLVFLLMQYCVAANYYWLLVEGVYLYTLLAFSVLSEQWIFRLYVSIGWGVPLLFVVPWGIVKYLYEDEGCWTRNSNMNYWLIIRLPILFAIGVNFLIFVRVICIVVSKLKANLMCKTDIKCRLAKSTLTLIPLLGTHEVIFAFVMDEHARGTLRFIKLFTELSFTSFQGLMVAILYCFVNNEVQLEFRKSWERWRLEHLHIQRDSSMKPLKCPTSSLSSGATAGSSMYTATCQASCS
T1 sequence (P47871 26-477): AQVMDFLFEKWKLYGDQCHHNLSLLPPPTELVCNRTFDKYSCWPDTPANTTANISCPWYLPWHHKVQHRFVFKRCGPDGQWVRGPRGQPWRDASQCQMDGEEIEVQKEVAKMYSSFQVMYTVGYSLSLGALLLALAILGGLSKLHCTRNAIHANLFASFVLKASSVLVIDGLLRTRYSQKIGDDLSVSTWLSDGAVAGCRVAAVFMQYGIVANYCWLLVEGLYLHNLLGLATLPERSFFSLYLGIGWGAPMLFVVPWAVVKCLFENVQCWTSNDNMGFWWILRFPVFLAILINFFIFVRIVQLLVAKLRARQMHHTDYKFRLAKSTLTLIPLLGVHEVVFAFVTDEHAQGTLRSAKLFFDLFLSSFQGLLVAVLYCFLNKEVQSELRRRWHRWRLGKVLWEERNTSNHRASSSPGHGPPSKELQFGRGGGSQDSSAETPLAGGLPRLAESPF

Emax (hGLP-1R; HEK293, 0.1% bovine casein and 1.0% human serum albumin, 37° C., percent of maximal response to GLP-1(7-36)NH2) [%]	SMILES	Emax (hGLP-1R; HEK293, cAMP, 37° C., 0.1% bovine casein, percent of maximal response to GLP-1(7-36)NH2, arithmetic mean) [%]	EC50 (hGLP-1R; [1]) [nM]	EC50 (hGLP-1R; [2]) [nM]	EC50 (hGCGR; [1]) [nM]	EC50 (hGCGR; [2]) [nM]	Emax (hGIPR; HEK293, cAMP, 37° C., 0.1% bovine casein and 1.0% human serum albumin, percent of maximal response to GIP(1-42)NH2) [%]	EC50 (hGIPR; cAMP, 37° C., 0.1% bovine casein (no human serum albumin)) [nM]	EC50 (hGLP-1R; [3]) [nM]	Emax (hGLP-1R; [4]) [%]	EC50 (hGCGR; [3]) [nM]	EC50 (hGCGR; [5]) [nM]	EC50 (hGIPR; [6]) [nM]	Emax (hGIPR; [7]) [%]	EC50 (hGIPR; [8]) [nM]	EC50 (hGLP-1R; [5]) [nM]	Emax (hGIPR; [9]) [%]
–	CCCCCCCCCCCC(=O)N[C@@H](CCC(=O)NCCOCCOCC(=O)NCCOCCOCC(=O)NCCCC[C@H](NC(=O)[C@H](CCCN)NC(=O)[C@H](CC(=O)O)NC(=O)[C@H](CC(C)C)NC(=O)[C@](C)(CC(C)C)NC(=O)[C@@H](NC(=O)C(C)(C)NC(=O)[C@H](CCCCNC(=O)COCCOCCNC(=O)COCCOCCNC(=O)CC[C@H](NC(=O)CCCCCCCCCCC)C(=O)O)NC(=O)[C@H](CC(=O)O)NC(=O)[C@H](CO)NC(=O)[C@@H](NC(=O)[C@](C)(Cc1ccccc1F)NC(=O)[C@@H](NC(=O)CNC(=O)[C@H](CCC(=O)O)NC(=O)C(C)(C)NC(=O)[C@@H](N)Cc1ccc(O)cc1)[C@@H](C)O)[C@@H](C)O)[C@@H](C)CC)C(=O)N[C@@H](C)C(=O)N[C@@H](CCC(N)=O)C(=O)NC(C)(C)C(=O)N[C@@H](CCC(=O)O)C(=O)N[C@@](C)(Cc1ccccc1)C(=O)N[C@H](C(=O)N[C@H](CCC(=O)O)C(=O)N[C@@](C)(Cc1ccc(O)cc1)C(=O)N[C@@H](CC(C)C)C(=O)N[C@H](C(=O)N[C@@H](CCC(=O)O)C(=O)NCC(=O)NCC(=O)N1CCC[C@H]1C(=O)N[C@@H](CO)C(=O)N[C@@H](CO)C(=O)NCC(=O)N[C@@H](C)C(=O)N1CCC[C@H]1C(=O)N1CCC[C@H]1C(=O)N1CCC[C@H]1C(=O)N[C@@H](CO)C(N)=O)[C@@H](C)CC)[C@@H](C)CC)C(=O)O [Example 429]	116	0.116	17.3	> 9950	> 9950	93.3	0.00799	–	–	–	–	–	–	–	–	–
–	CC[C@H](C)[C@H](NC(=O)[C@H](CC(C)C)NC(=O)[C@H](CCCCNC(=O)COCCOCCNC(=O)COCCOCCNC(=O)CC[C@H](NC(=O)CCCc1ccc(C(C)(C)C)cc1)C(=O)O)NC(=O)[C@H](CCC(=O)O)NC(=O)[C@@H](NC(=O)[C@H](Cc1ccccc1)NC(=O)[C@H](CCC(=O)O)NC(=O)C(C)(C)NC(=O)[C@H](CCC(N)=O)NC(=O)[C@H](C)NC(=O)[C@H](CCCCNC(=O)COCCOCCNC(=O)COCCOCCNC(=O)CC[C@H](NC(=O)CCCc1ccc(C(C)(C)C)cc1)C(=O)O)NC(=O)[C@H](CCCN)NC(=O)[C@H](CC(=O)O)NC(=O)[C@H](CC(C)C)NC(=O)[C@](C)(CC(C)C)NC(=O)[C@@H](NC(=O)[C@H](CO)NC(=O)[C@H](Cc1ccncc1)NC(=O)[C@H](CC(=O)O)NC(=O)[C@H](CO)NC(=O)[C@@H](NC(=O)[C@](C)(Cc1ccccc1F)NC(=O)[C@@H](NC(=O)CNC(=O)[C@H](CCC(=O)O)NC(=O)C(C)(C)NC(=O)[C@@H](N)Cc1ccc(O)cc1)[C@@H](C)O)[C@@H](C)O)[C@@H](C)CC)[C@@H](C)CC)C(=O)N[C@@H](CCC(=O)O)C(=O)NCC(=O)NCC(=O)N1CCC[C@H]1C(=O)N[C@@H](CO)C(=O)N[C@@H](CO)C(=O)NCC(=O)N[C@@H](C)C(=O)N1CCC[C@H]1C(=O)N1CCC[C@H]1C(=O)N1CCC[C@H]1C(=O)N[C@@H](CO)C(N)=O [Example 68]	–	–	–	–	–	–	–	5.79	95.9	> 9950	> 9950	0.0831	92.4	0.0105	–	–
–	CC[C@H](C)[C@H](NC(=O)[C@H](CC(C)C)NC(=O)[C@](C)(Cc1ccc(O)cc1)NC(=O)[C@@H](CCC(=O)O)NC(=O)[C@@H](NC(=O)[C@H](Cc1ccccc1)NC(=O)[C@H](CCC(=O)O)NC(=O)C(C)(C)NC(=O)[C@H](CCC(N)=O)NC(=O)[C@H](C)NC(=O)[C@H](CCCCNC(=O)COCCOCCNC(=O)COCCOCCNC(=O)CC[C@H](NC(=O)CCCCCCCCCCCCC(=O)O)C(=O)O)NC(=O)[C@H](CCCN)NC(=O)[C@H](CC(=O)O)NC(=O)[C@H](CC(C)C)NC(=O)[C@](C)(CC(C)C)NC(=O)[C@@H](NC(=O)[C@H](CO)NC(=O)[C@H](Cc1ccc(-c2ccccc2)cc1)NC(=O)[C@H](CC(=O)O)NC(=O)[C@H](CO)NC(=O)[C@@H](NC(=O)[C@](C)(Cc1ccccc1F)NC(=O)[C@@H](NC(=O)CNC(=O)[C@H](CCC(=O)O)NC(=O)C(C)(C)NC(=O)[C@@H](N)Cc1ccc(O)cc1)[C@@H](C)O)[C@@H](C)O)[C@@H](C)CC)[C@@H](C)CC)C(=O)N[C@@H](CCC(=O)O)C(=O)NCC(=O)NCC(=O)N[C@@H](CCCCNC(=O)COCCOCCNC(=O)COCCOCCNC(=O)CC[C@H](NC(=O)CCCCCCCCCCCCC(=O)O)C(=O)O)C(=O)N[C@@H](CO)C(=O)N[C@@H](CO)C(=O)NCC(=O)N[C@@H](C)C(=O)N1CCC[C@H]1C(=O)N1CCC[C@H]1C(=O)N1CCC[C@H]1C(=O)N[C@@H](CO)C(N)=O [Example 55]	–	–	–	–	–	–	–	70.5	–	> 9950	> 9950	–	85.7 ± 0.885	0.0207	0.154	97.1 ± 2.16
98.2 ± 5.4	CC[C@H](C)[C@H](NC(=O)[C@H](CC(C)C)NC(=O)[C@](C)(Cc1ccc(O)cc1)NC(=O)[C@@H](CCC(=O)O)NC(=O)[C@@H](NC(=O)[C@H](Cc1ccccc1)NC(=O)[C@H](CCC(=O)O)NC(=O)C(C)(C)NC(=O)[C@H](CCC(N)=O)NC(=O)[C@H](C)NC(=O)[C@H](CCCCNC(=O)COCCOCCNC(=O)COCCOCCNC(=O)CC[C@H](NC(=O)CCCCCCCCCCCCC(=O)O)C(=O)O)NC(=O)[C@H](CCCN)NC(=O)[C@H](CC(=O)O)NC(=O)[C@H](CC(C)C)NC(=O)[C@](C)(CC(C)C)NC(=O)[C@@H](NC(=O)[C@H](CO)NC(=O)[C@H](Cc1ccncc1)NC(=O)[C@H](CC(=O)O)NC(=O)[C@H](CO)NC(=O)[C@@H](NC(=O)[C@](C)(Cc1ccccc1F)NC(=O)[C@@H](NC(=O)CNC(=O)[C@H](CCC(=O)O)NC(=O)C(C)(C)NC(=O)[C@@H](N)Cc1ccc(O)cc1)[C@@H](C)O)[C@@H](C)O)[C@@H](C)CC)[C@@H](C)CC)C(=O)N[C@@H](CCC(=O)O)C(=O)NCC(=O)NCC(=O)N[C@@H](CCCCNC(=O)COCCOCCNC(=O)COCCOCCNC(=O)CC[C@H](NC(=O)CCCCCCCCCCCCC(=O)O)C(=O)O)C(=O)N[C@@H](CO)C(=O)N[C@@H](CO)C(=O)NCC(=O)N[C@@H](CCCN)C(=O)N1CCC[C@H]1C(=O)N1CCC[C@H]1C(=O)N1CCC[C@H]1C(=O)N[C@@H](CO)C(N)=O [Example 153] (H-Y[Aib]EGT[αMePhe(2-F)]TSD[4Pal]SI[αMeL]LD[Orn]K([AEEA-AEEA-γGlu-C14 diacid])AQ[Aib]EFI[dE][αMeY]LIEGGK([AEEA-AEEA-γGlu-C14 diacid])SSG[Orn]PPPS-NH2)	–	–	–	–	–	–	–	40.8	91.8 ± 4.63	> 9950	> 9950	1.15	94.1 ± 3.21	0.0277	1.1	97.8 ± 2.74
